Tested on: UCP3
Assay: UCP3 mRNA expression change in pre-adipocytes, RNA-Seq (Table 14)
Assay type: cell-based, human
Details: 12 days, 100 nM rosiglitazone or 25 nM miRNA analog
Procedure: In order to assess the effect of miRNA analogs on human pre-adipocytes differentiation into mature adipocytes, human subcutaneous pre-adipocytes (SuperLot 0048 from 8 female donors, ZenBio, NC) were plated on Day 0 into 96-well plates and allowed to attach overnight in preadipocyte medium (DMEM/Ham's F-12 (1:1, v/v), HEPES buffer, Fetal bovine serum and Antibiotics). The next day (Day 1), the medium was removed and replaced with differentiation medium (DMEM/Ham's F-12 (1:1, v/v), 100 μM Ascorbic Acid, 0.85 μM insulin, 20 nM sodium selenite, 0.2 nM, triiodothryonine, 1 μM dexamethasone, 100 μM isobutyl-methylxanthine, 100 nM Rosiglitazone and Antibiotics. The cells were allowed to incubate for 2 days at 37°, 5% CO2. After 2 days (Day 3), the medium was removed and replaced with fresh maintenance medium (DMEM/Ham's F-12 (1:1, v/v), 100 μM Ascorbic Acid, 0.85 μM insulin, 20 nM sodium selenite, 0.2 nM triiodothryonine, and Antibiotics). On Day 3, the cells were transfected with miRNA analogs (Dharmacon specific miRIDIAN Mimics and Hairpin Inhibitors) using the transfecting agent Dharmafect1. All treatments were in triplicate. […]
Changes in mRNA expression of UCP1, 2 and 3 were also measured in the presence of rosiglitazone or miRNA analogs, as shown below in Table 14.

## CN(CCOc1ccc(CC2SC(=O)NC2=O)cc1)c1ccccn1 (stereo not shown) [rosiglitazone]
  mRNA Expression changes (log ratios) UCP3: 0.26 log ratios
